These results are taken from article PMC10165273, “Itch receptor MRGPRX4 interacts with the receptor activity–modifying proteins” (The Journal of Biological Chemistry, 2023).

Each structure is given as a SMILES string. Values after ≈ are worked out from the molar mass of the structure shown. Values joined by “and” are separate entries in the source; they are usually repeats but may differ in a detail not shown here. Equal entries are not always repeated. *1 amine or outer side, *2 acyl side, *3 side chain or, on linkers, in order; H or OH if unused. Where a SMILES comes first, the peptide text is derived from it. Bridges are numbered along the chain shown (N, C = ends). [ ]: non-standard residue; d: D form. X1 = CC(=O)NC(C(=O)OC(C(C)C)C(N[*:1])C(=O)[*:2])C(O)C(C)C; PhLac = O=C(O)[CH](O)Cc1ccccc1; NMeT = CN[CH](C(=O)O)[CH](C)O; NMeA = CN[CH](C)C(=O)O; NMeDha = C=C(NC)C(=O)O

The Emax is the size of the effect at its maximum, as opposed to the concentration needed. Usually EC50 stands for the concentration needed to bring the measured effect to its halfway point.

Test [1] relates to mock-transfected HEK293T cells. Kind of test: IP1 accumulation, mock-transfected cells. Format: cell-based, human. Details: IP1 Basal / IP1 span / IP1 Emax / IP1 accumulation, dose-response (Figure 1a) / IP1 accumulation with YM (Figure 1c) / IP1 accumulation: unit not given here. The settings on record: for IP1 Basal / IP1 Emax / IP1 span: Mock. The method, then:
(§1) HEK293T cells were transfected with 1 pg/cell of MRGPRX4 DNA, and the amount of DNA was kept constant at 2 pg/cell with pcDNA3.1(+) empty vector, unless otherwise specified. Twenty four hours after transfection, IP1 assay was performed as previously described ([51]). When applicable, cells were treated with 1 μM YM254890 (YM) or different concentrations of U73122 for 1 h prior to addition of agonist or buffer. After incubation for 2 h, HTRF reagents and IP1 calibration standards were added and incubated for 2 h in the dark at room temperature. Time-resolved fluorescence signals were read on the BioTek Synergy NEO-TRF Hybrid multi-mode reader (BioTek Instruments). All data were carried out in three independent experiments with three technical replicate each.
(§2) Validation of CALCRL constructs was assayed by cotransfecting HEK293T cells with different tagged versions of CALCRL alone or with each RAMP and with the promiscuous Gqs5 Gq chimera protein, at a respective DNA ratio of 1:1:0.5. Gqs5 is an engineered Gq protein containing the last five amino acid residues of Gs, which allows Gs-coupled GPCRs to signal through Gq downstream signaling pathways ([55]). The homogenous transfection method described above was used for all DNA mixes. CALCRL:RAMP2:Gqs5-transfected cells served as positive control for RAMP functionality.
(§3) Data reduction, standard calibration, and transformation of HTRF data were performed as previously described ([51]). Normalized IP1 values were calculated relative to the unstimulated mock-transfected cells (set to 0%) and fully stimulated MRGPRX4 (alone if applicable) (set to 100%).

The target in a further test is T1, CALCRL (Homo sapiens, UniProt Q16602).
T1 construct: 5-HT3a receptor signal peptide (X1) (N); expressed in transfected cells; host or cells: HEK293T
The test is described as follows: IP1 accumulation, CALCRL alone with Gqs5. The test is classed as cell-based. As for the experimental part:
as §2, §3

A further test deals with T2, CALCRL + RAMP3 (Homo sapiens, UniProt O60896+Q16602).
T2 construct: 5-HT3a receptor signal peptide (X1) (N); expressed in transfected cells; host or cells: HEK293T
The test is described as follows: IP1 accumulation, CALCRL with RAMP3 and Gqs5. Format: cell-based. The method, then: as §2, §3

Another test has as its target T3, MRGPRX4 (Homo sapiens, UniProt Q96LA9).
T3 construct: expressed in transfected cells; host or cells: HEK293T
The test is described as follows: IP1 accumulation HTRF assay, MRGPRX4. The settings on record: for effect on nateglinide and DCA IP1 responses: inhibitor pretreatment 1 h (Fig. S1D-E); for effect on MRGPRX4 basal IP1 activity: no agonist (Figs. 1C and S1E); for IP1 accumulation with YM (Figure 1c): YM 1 µM, no agonist. Format: cell-based. Details: key to IP1 Basal / IP1 accumulation with YM (Figure 1c) / response to agonist, MRGPRX4 / IP1 accumulation: % IP1: unstimulated mock-transfected = 0%, fully stimulated MRGPRX4 = 100%. As for the experimental part: as §1
(§4) For characterization of the Tet-On Nluc-HT7-MRGPRX4-GFP10-1D4 construct, HEK293T cells were transfected as previously described with some modifications. Dox dose-response of NLuc-HT7-MRGPRX4-GFP10-1D4 DNA titration was assayed by transfecting HEK293T cells with either 1 or 2 pg/cell of NLuc-HT7-MRGPRX4-GFP10-1D4 construct. Receptor expression was induced 4 h after transfection with addition of different concentrations of dox for 20 h. For the RAMP DNA titration assay, cells were cotransfected with a constant amount of 1 pg/cell of NLuc-HT7-MRGPRX4-GFP10-1D4 DNA and 1, 0.75, 0.5, or 0 pg/cell of each HA-RAMP-OLLAS with the homogenous transfection method. Four hours after transfection, receptor expression was induced with addition of 1000 ng/ml dox. Twenty hours after induction, IP1 assay was performed.
as §3
Background: In TR-FRET formats the signal depends on donor and acceptor labels being close together.

The test system of another test is Tet-On MRGPRX4. Kind of test: dox-induced total receptor expression, Nano-Glo luminescence. Format: cell-based, human. Particulars: normalized total luminescence (Fig. S5I); for EC50: Homo sapiens. The method, then: as §4
HEK293T cells were transfected with 1 pg/cell of Tet-On FLAG-NLuc-HT7-MRGPRX4-GFP10-1D4 alone or coexpressed with 0.7, 0.5, 0.3, or 0.1 pg/cell of each RAMP, and expression was induced 4 h after transfection with 1000 ng/ml dox. HEK293T cells transfected with 1 pg/cell of Tet-On CALCRL alone or with 0.5 pg/cell of RAMP2 served as controls. Twenty hours after transfection, media was replaced with BRET buffer. First, the HT7-tagged GPCR was labeled with “pulse” of 100 nM HaloTag Alexa Fluor 660 (cell impermeable, emission 690 nm) for 2 h at 16 °C in the dark. Next, a chase step was performed by adding 100 nM HaloTag 618 (cell permeable, emission 620 nm) for 2 h at 16 °C in the dark. Lastly, Nano-Glo Luciferase assay reagent was prepared per manufacturer’s instructions. Optimal dosage of dox was determined by selecting the concentration at the plateau from a dox dose-response experiment, in which dox-induced expression was assayed with the additional of Nano-Glo Luciferase assay reagent (Fig. S5I).
Data were acquired by measuring the luminescence at 460, 618, and 690 nm in kinetics mode on a SpectraMax i3X at 37 °C. The obtained emission intensity values were corrected, normalized, plotted against each other, and fitted to a linear equation to generate a scaling factor that was then used to calculate and graph the percentage surface labeling. Experiments were conducted in biological triplicate with three technical replicates each. The corrected 690/460 BRET ratio was normalized to the mean of MRGPRX4 alone (+dox). Similarly, total expression was normalized to the mean of the 460 nm luminescence for MRGPRX4 alone (+dox).

Where [2] appears, read: HA-CALCRL-1D4 series (Fig. S4J-L).
Setting [3] is: HA-CALCRL-GFP10-1D4 series (Fig. S4G-I).
Setting [4] is: HA-CALCRL-1D4 alone (Fig. S4J-L).
[5] abbreviates: HA-CALCRL-GFP10-1D4 alone (Fig. S4G-I).
[6] abbreviates: HA-CALCRL-1D4 + FLAG-RAMP3-OLLAS (Fig. S4J-L).
Where [7] appears, read: HA-CALCRL-1D4 + HA-RAMP3-OLLAS (Fig. S4J-L).
[8] abbreviates: HA-CALCRL-GFP10-1D4 + FLAG-RAMP3-OLLAS (Fig. S4G-I).
Setting [9] is: HA-CALCRL-GFP10-1D4 + HA-RAMP3-OLLAS (Fig. S4G-I).
[10] abbreviates: Tet-On MRGPRX4+RAMP2 (DNA ratio 1:0.5).

T3 sequence (Q96LA9 whole entry): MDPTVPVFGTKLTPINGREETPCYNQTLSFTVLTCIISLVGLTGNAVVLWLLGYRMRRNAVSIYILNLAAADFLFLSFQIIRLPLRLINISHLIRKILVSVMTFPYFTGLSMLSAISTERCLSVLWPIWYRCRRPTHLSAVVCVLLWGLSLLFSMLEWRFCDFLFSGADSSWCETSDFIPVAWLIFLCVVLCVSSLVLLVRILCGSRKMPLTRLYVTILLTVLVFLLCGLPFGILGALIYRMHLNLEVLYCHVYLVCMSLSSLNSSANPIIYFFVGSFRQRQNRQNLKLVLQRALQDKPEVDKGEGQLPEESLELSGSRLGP
T2 sequence (Q16602 23-461): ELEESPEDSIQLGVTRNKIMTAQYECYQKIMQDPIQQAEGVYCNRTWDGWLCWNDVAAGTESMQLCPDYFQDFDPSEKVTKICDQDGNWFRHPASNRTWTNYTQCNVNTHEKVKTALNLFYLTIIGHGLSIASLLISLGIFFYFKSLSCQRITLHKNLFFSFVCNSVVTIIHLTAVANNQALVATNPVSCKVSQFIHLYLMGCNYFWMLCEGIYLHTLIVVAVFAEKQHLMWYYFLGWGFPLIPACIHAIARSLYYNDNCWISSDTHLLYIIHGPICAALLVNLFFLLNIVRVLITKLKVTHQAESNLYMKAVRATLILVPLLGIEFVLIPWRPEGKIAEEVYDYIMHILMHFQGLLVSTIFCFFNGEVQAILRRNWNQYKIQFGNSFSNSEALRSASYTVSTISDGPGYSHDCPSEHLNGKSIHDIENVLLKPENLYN
T2 sequence (O60896 28-148 limits assumed): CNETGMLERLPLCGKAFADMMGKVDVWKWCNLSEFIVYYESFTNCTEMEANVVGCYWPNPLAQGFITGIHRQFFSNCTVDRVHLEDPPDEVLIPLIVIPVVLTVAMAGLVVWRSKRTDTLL
T1 sequence (Q16602 23-461): as the sequence (Q16602 23-461) above

For `CC[C@H](C)[C@H](NC(=O)[C@H](CCC(N)=O)NC(=O)[C@H](Cc1c[nH]cn1)NC(=O)[C@H](C)NC(=O)[C@H](CC(C)C)NC(=O)[C@H](CCCCN)NC(=O)[C@H](CCC(N)=O)NC(=O)[C@@H](NC(=O)[C@@H](NC(=O)[C@@H]1CSSC[C@H](NC(=O)CNC(=O)[C@H](Cc2ccccc2)NC(=O)[C@H](CO)NC(=O)[C@H](CCCNC(=N)N)NC(=O)[C@H](CC(C)C)NC(=O)CNC(=O)[C@H](CCC(N)=O)NC(=O)[C@H](Cc2ccccc2)NC(=O)[C@H](CC(N)=O)NC(=O)[C@H](CC(N)=O)NC(=O)[C@H](CCSC)NC(=O)[C@H](CO)NC(=O)[C@H](CCC(N)=O)NC(=O)[C@H](CCCNC(=N)N)NC(=O)[C@@H](N)Cc2ccc(O)cc2)C(=O)N[C@@H](CCCNC(=N)N)C(=O)N[C@@H](Cc2ccccc2)C(=O)NCC(=O)N[C@@H]([C@@H](C)O)C(=O)N1)[C@@H](C)O)C(C)C)C(=O)N[C@@H](Cc1ccc(O)cc1)C(=O)N[C@@H](CCC(N)=O)C(=O)N[C@@H](Cc1ccccc1)C(=O)N[C@H](C(=O)N[C@@H](CC(=O)O)C(=O)N[C@@H](CCCCN)C(=O)N[C@@H](CC(=O)O)C(=O)N[C@@H](CCCCN)C(=O)N[C@@H](CC(=O)O)C(=O)N[C@@H](CC(N)=O)C(=O)N[C@H](C(=O)N[C@@H](C)C(=O)N1CCC[C@H]1C(=O)N[C@@H](CCCNC(=N)N)C(=O)N[C@@H](CO)C(=O)N[C@@H](CCCCN)C(=O)N[C@H](C(=O)N[C@@H](CO)C(=O)N1CCC[C@H]1C(=O)N[C@@H](CCC(N)=O)C(=O)NCC(=O)N[C@@H](Cc1ccc(O)cc1)C(N)=O)[C@@H](C)CC)C(C)C)[C@@H](C)O` [Adrenomedullin], the “IP1 Basal” value in test [1] (setting [2]) is listed as 0.9133; in test [1] (setting [3]), 0.1993; on CALCRL (setting [4]), 11.35; on CALCRL (setting [5]), 4.246; on CALCRL + RAMP3 (setting [6]) it was 9.152; at CALCRL + RAMP3 (setting [7]) it was 8.590. Besides, the “IP1 Basal” value on CALCRL + RAMP3 (setting [8]) was 11.09; on CALCRL + RAMP3 (setting [9]), 9.590. The “IP1 Emax” value in test [1] (setting [2]) is on record as 0.05397; in test [1] (setting [3]), 11.54. Further, the IP1 span in test [1] (setting [2]) is -0.8593; in test [1] (setting [3]) it was 11.34; at CALCRL (setting [4]) it was “Unstable”; on CALCRL + RAMP3 (setting [6]) it was 86.8%; on CALCRL + RAMP3 (setting [7]) it was 99.5%; at CALCRL + RAMP3 (setting [8]), 73.8%. Besides, the IP1 span on CALCRL + RAMP3 (setting [9]) was 92%. The Emax was 10.5% at CALCRL (setting [5]); 96% at CALCRL + RAMP3 (setting [6]); 108% on CALCRL + RAMP3 (setting [7]); 84.9% at CALCRL + RAMP3 (setting [8]); 102% at CALCRL + RAMP3 (setting [9]). Also, the Span at CALCRL (setting [5]) was 6.24%.
Turning to `COc1ccc2c(c1)CC[C@@H]1[C@@H]2CC[C@]2(C)[C@@H](NCCCCCCN3C(=O)C=CC3=O)CC[C@@H]12` [U73122], on MRGPRX4 (MRGX4, Basal, U73122 30uM, Fig S1e), the IP1 accumulation is 3.194 and 5.28. Besides, on MRGPRX4, the “effect on nateglinide and DCA IP1 responses” value is reported as “inhibited”; the “effect on MRGPRX4 basal IP1 activity” value is reported as “abolished”.
With `C=C1C(=O)NC(C)C(=O)N(C)C(C)C(=O)NC(C(OC(=O)C(NC(C)=O)C(O)C(C)C)C(C)C)C(=O)N(C)C(C(C)OC)C(=O)OC(C)C(NC(C)=O)C(=O)OC(Cc2ccccc2)C(=O)N1C` (centres unmarked) [YM254890] (Ac-T[PhLac][NMeDha]A[NMeA][X1][NMeT](Me); ester 1-C; configuration not given here), the “IP1 accumulation with YM (Figure 1c)” value on MRGPRX4 (MRGPRX4 0.125 pg DNA/cell) is given as 1.405; at MRGPRX4 (MRGPRX4 0.25 pg DNA/cell), 1.309; at MRGPRX4 (MRGPRX4 0.5 pg DNA/cell), 1.374; on MRGPRX4 (MRGPRX4 1 pg DNA/cell) it was 1.6019; on MRGPRX4 (MRGPRX4 2 pg DNA/cell), 1.692; in test [1] (YM 1 µM, MRGPRX4 0 pg DNA/cell, no agonist), 1.719. Further, at MRGPRX4, the “effect on nateglinide and DCA IP1 responses” value is on record as “inhibited”. Further, the “effect on MRGPRX4 basal IP1 activity” value at MRGPRX4 was “abolished”.
Take `C[C@H]1c2cccc(O)c2C(=O)C2=C(O)[C@]3(O)C(=O)C(C(N)=O)=C(O)[C@@H](N(C)C)[C@@H]3[C@@H](O)[C@@H]21` [dox, doxycycline]: in the test with Tet-On MRGPRX4 (setting [10]), the EC50 turned out to be 8.07 ng/mL, the “total expression Basal” value was 0.003719, the “total expression Emax” value is listed as 0.7930 and the “total expression logEC50” value came to 0.9067. Besides, the total expression span in the test on Tet-On MRGPRX4 (setting [10]) is 0.7893. For the same compound, in the test with Tet-On MRGPRX4 (Tet-On MRGPRX4 alone), the EC50 is 4.05 ng/mL (≈ 9.1 nM), the “total expression Basal” value is given as 0.009273, the “total expression Emax” value is on record as 0.9497 and the “total expression logEC50” value is 0.6070. In the test with Tet-On MRGPRX4 (Tet-On MRGPRX4 alone), the total expression span came to 0.9404.
